# Measurements reported in patent US20100075894A1, “REDUCING ER STRESS IN THE TREATMENT OF OBESITY AND DIABETES” (HARVARD UNIVERSITY, priority 2004, published 2010).
# Tested on: Fao liver cells
# Assay: ER stress inducers and insulin action in Fao liver cells
# Assay type: cell-based, rat
# Experimental: (A) ER stress was induced in Fao liver cells by a 3-hour treatment with 5 μg/ml tunicamycin (Tun). Cells were subsequently stimulated with insulin (Ins). IRS-1 tyrosine and serine (Ser307) phosphorylation, Akt phosphorylation (Ser473), insulin receptor (IR) tyrosine phosphorylation, and their total protein levels were examined using either immunoprecipitation (IP) followed by immunoblotting (IB) or direct immunoblotting. (B) Quantitation of IRS-1 (tyrosine and Ser307), Akt (Ser473), and IR (tyrosine) phosphorylation under the experimental conditions described in (A) with normalization to protein levels for each molecule. (C) Inhibition of ER stress-induced (300 nM thapsigargin for 4 hours) Ser307 phosphorylation of IRS-1 by JNK-1 inhibitor, SP600125 (JNKi, 25 μM), (D) Quantitation of IRS-1 Ser307 phosphorylation under conditions described in (C). (E) Reversal of ER stress-induced inhibition of insulin-stimulated tyrosine phosphorylation (pY) of IRS-1 by a JNK inhibitor. (F) Quantitation of insulin-induced IRS-1 tyrosine phosphorylation levels described in (E). (G) JNK activity, Ser307 phosphorylation of IRS-1, and total IRS-1 levels at indicated times following tunicamycin treatment (Tun, 10 μg/ml for 1 hour) in IRE-1α^+/+ and IRE-1α^−/− fibroblasts. (H) Insulin-stimulated IRS-1 tyrosine phosphorylation and total IRS-1 levels following tunicamycin treatment (Tun, 10 μg/ml for 1 hour) in IRE-1α^+/+ and IRE-1α^−/− fibroblasts. […] All graphs show mean±SEM from at least 2 independent experiments and statistical significance from the controls is indicated by * with p<0.005.
# (A) ER stress was induced in Fao cells by 1 hour treatment with 300 nM thapsigargin (Thap), and cells were subsequently stimulated with insulin (Ins). IRS-1 tyrosine phosphorylation (pY) and serine phosphorylation (pSer307), insulin receptor (IR) tyrosine phosphorylation, and total protein levels were examined using either immunoprecipitation (IP) followed by immunoblotting (IB) or direct immunoblotting. (B) Fao cells were treated with sulindac sulfide (SS: 0, 7.5, 30, and 60 μM) for 45 minutes with or without an additional hour of exposure to 300 nM thapsigargin (Thap). IRS-1 serine phosphorylation and total IRS-1 protein levels were examined as described above.
# To investigate whether ER stress interferes with insulin action, we pretreated Fao liver cells with tunicamycin and thapsigargin, agents commonly used to induce ER stress. […] IRS-1 is a substrate for insulin receptor tyrosine kinase and serine phosphorylation of IRS-1, particularly mediated by JNK, reduces insulin receptor signaling (Hirosumi et al., Nature 420:333 (2002); incorporated herein by reference).
# Cells: Rat Fao liver cells were cultured with RPMI 1640 (Gibco, Grand Island, N.Y.) containing 10% fetal bovine serum (FBS). […]
# [1] = Fao cells pretreated with the agent
substance,measurement,setting,value
tunicamycin,insulin-induced Akt phosphorylation,[1],suppressed
same,serine phosphorylation of IRS-1,[1],significant increase
same,insulin-stimulated tyrosine phosphorylation of IRS-1,Fao liver cells pretreated with the agent,significantly decreased
